Reference: US20250051276A1 (priority 2021, published 2025)
pEC50, pIC50: −log10 of the molar value.

Tests used:
[1] = target: human recombinant 5-HT2Cedited receptor (Homo sapiens, UniProt P28335, I156V/I160V/N158S); assay: cell-based
[2] = target: 5-HT2Cedited (accession number AAF35842.1) (Homo sapiens, UniProt P28335, I156V/I160V/N158S); assay: biochemical; format: binding
Chain of 5-HT2Cedited (accession number AAF35842.1) (P28335 whole entry I156V/N158S/I160V, looked up): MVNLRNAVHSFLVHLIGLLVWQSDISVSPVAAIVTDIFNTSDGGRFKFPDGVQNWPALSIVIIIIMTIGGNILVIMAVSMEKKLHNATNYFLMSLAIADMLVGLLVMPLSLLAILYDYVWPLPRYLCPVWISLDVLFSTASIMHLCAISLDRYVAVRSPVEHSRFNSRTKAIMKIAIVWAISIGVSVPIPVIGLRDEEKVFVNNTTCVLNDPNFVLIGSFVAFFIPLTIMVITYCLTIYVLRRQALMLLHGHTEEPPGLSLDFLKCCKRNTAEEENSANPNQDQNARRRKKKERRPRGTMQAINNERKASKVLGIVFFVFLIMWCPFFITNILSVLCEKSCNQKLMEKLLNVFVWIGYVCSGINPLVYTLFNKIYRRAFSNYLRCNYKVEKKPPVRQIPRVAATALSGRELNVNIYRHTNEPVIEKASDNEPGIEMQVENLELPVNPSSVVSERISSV

Chain of human recombinant 5-HT2Cedited receptor (P28335 33-458 I156V/N158S/I160V limits assumed): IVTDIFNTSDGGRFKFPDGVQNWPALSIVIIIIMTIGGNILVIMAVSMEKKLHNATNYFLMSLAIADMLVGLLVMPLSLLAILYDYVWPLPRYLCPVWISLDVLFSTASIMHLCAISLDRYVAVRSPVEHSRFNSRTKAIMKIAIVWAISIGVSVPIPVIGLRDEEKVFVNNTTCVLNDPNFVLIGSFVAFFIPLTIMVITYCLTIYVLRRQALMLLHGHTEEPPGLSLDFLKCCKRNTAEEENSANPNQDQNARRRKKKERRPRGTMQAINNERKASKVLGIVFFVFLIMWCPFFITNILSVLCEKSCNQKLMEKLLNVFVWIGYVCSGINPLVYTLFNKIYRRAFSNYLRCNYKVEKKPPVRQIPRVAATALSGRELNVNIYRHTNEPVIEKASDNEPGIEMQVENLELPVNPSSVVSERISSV

In the case of `C[C@H](Cn1ccc2cc(OCc3ccccc3)ccc21)N1CCCC1` [Compound 12, (R)-5-(benzyloxy)-1-(2-(pyrrolidin-1-yl)propyl)-1H-indole], the pEC50 [1] was < 5.00 and the pIC50 [2] was 5.00 to 6.00.
Work on `CN[C@H](C)Cn1ccc2cc(OCc3ccccc3)ccc21` [Compound 4, (R)-1-(5-(benzyloxy)-1H-indol-1-yl)-N-methylpropan-2-amine] yielded a pEC50 [1] of 5.00 to 6.00 and a pIC50 [2] of 5.00 to 6.00.
In the case of `CCN(CC)[C@H](C)Cn1ccc2cc(OCc3ccccc3)ccc21` [Compound 11, (R)-1-(5-(benzyloxy)-1H-indol-1-yl)-N,N-diethylpropan-2-amine], the pEC50 [1] was < 5.00 and the pIC50 [2] was 5.00 to 6.00.
In the case of `C[C@@H](N)Cn1ccc2nc(OCc3ccccc3)ccc21` [Compound 2, (R)-1-(5-(benzyloxy)-1H-pyrrolo[3,2-b]pyridin-1-yl)propan-2-amine], the pEC50 [1] was < 5.00 and the pIC50 [2] was < 5.00.
With `C[C@@H](N)Cn1ccc2cc(OCc3ccccc3F)ccc21` [Compound 7, (R)-1-(5-((2-fluorobenzyl)oxy)-1H-indol-1-yl)propan-2-amine] the pEC50 [1] was 5.00 to 6.00 and the pIC50 [2] was 5.00 to 6.00.
With `C[C@H](Cn1ccc2cc(OCc3cccc(F)c3)ccc21)N(C)C` [Compound 9, (R)-1-(5-((3-fluorobenzyl)oxy)-1H-indol-1-yl)-N,N-dimethylpropan-2-amine] the pEC50 [1] was < 5.00 and the pIC50 [2] was 6.00 to 7.00.
Compound `C[C@@H](N)Cn1ccc2cc(OCc3ccc(F)cc3)ccc21` [Compound 5, (R)-1-(5-((4-fluorobenzyl)oxy)-1H-indol-1-yl)propan-2-amine] has a pEC50 [1] of 5.00 to 6.00 and a pIC50 [2] of 6.00 to 7.00.
`C[C@H](Cn1ccc2nc(OCc3ccccc3)ccc21)N(C)C` [Compound 1, (R)-1-(5-(benzyloxy)-1H-pyrrolo[3,2-b]pyridin-1-yl)-N,N-dimethylpropan-2-amine] was tested, and the pEC50 [1] was < 5.00 and the pIC50 [2] was 5.00 to 6.00.
For `C[C@@H](N)Cn1ccc2cc(OCc3cccc(F)c3)ccc21` [Compound 6, (R)-1-(5-((3-fluorobenzyl)oxy)-1H-indol-1-yl)propan-2-amine], the pEC50 [1] was 5.00 to 6.00 and the pIC50 [2] was 6.00 to 7.00.
In the case of `C[C@H](Cn1ccc2cc(OCc3ccccc3F)ccc21)N(C)C` [Compound 10, (R)-1-(5-((2-fluorobenzyl)oxy)-1H-indol-1-yl)-N,N-dimethylpropan-2-amine], the pEC50 [1] was < 5.00 and the pIC50 [2] was 6.00 to 7.00.
With `C[C@H](Cn1ccc2cc(OCc3ccccc3)ccc21)N(C)C` [Compound 3, (R)-1-(5-(benzyloxy)-1H-indol-1-yl)-N,N-dimethylpropan-2-amine] the pEC50 [1] was 5.00 to 6.00 and the pIC50 [2] was 6.00 to 7.00.
In the case of `C[C@H](Cn1ccc2cc(OCc3ccc(F)cc3)ccc21)N(C)C` [Compound 8, (R)-1-(5-((4-fluorobenzyl)oxy)-1H-indol-1-yl)-N,N-dimethylpropan-2-amine], the pEC50 [1] was < 5.00 and the pIC50 [2] was 6.00 to 7.00.
